Results on two molecules are retold here after ChEMBL document CHEMBL5247578, “Effective synthesis of benzimidazoles-imidazo[1,2-a]pyrazine conjugates: A comparative study of mono-and bis-benzimidazoles for antitumor activity” (Eur J Med Chem, 2019).

A value given as a limit tells only on which side of the number the result lay.

Data set [1] concerns Calf thymus DNA. As to the kind of experiment: Binding affinity to calf thymus DNA assessed as gibbs free energy change at temperature of 318 K by Van't Hoff plot analysis. It counts as nucleic-acid assay. Particulars: Bos taurus.
Data set [2] has as its system Calf thymus DNA. The data set is described as follows: Binding affinity to calf thymus DNA assessed as gibbs free energy change at temperature of 308 K by Van't Hoff plot analysis. The class given is nucleic-acid assay. Particulars: Bos taurus.
Data set [3] deals with Calf thymus DNA. The data set is described as follows: Binding affinity to calf thymus DNA assessed as gibbs free energy change at temperature of 298 K by Van't Hoff plot analysis. Particulars: Bos taurus. The class given is nucleic-acid assay.
Data set [4] concerns Calf thymus DNA. The data set is described as follows: Binding affinity to calf thymus DNA assessed as change in entropy at temperature of 298 K by Van't Hoff plot analysis. It counts as nucleic-acid assay. The note with it: Bos taurus.
Data set [5] has as its system Calf thymus DNA. The data set is described as follows: Binding affinity to calf thymus DNA assessed as change in enthalpy at temperature of 298 K by Van't Hoff plot analysis. It counts as nucleic-acid assay. Particulars: Bos taurus.
The test system of data set [6] is Calf thymus DNA. The data set is described as follows: Binding affinity to calf thymus DNA assessed as fluorescence quenching intensity at 5 uM at temperature of 308 K by fluorescence spectroscopic method relative to control. It counts as nucleic-acid assay. The note with it: Bos taurus.
In data set [7] the test system is Calf thymus DNA. As to the kind of experiment: Binding affinity to calf thymus DNA assessed as binding constant at temperature of 318 K by Stern-Volmer quenching plot based fluorescence spectroscopic method. Particulars: Bos taurus. It counts as nucleic-acid assay.
Data set [8] deals with Calf thymus DNA. The data set is described as follows: Binding affinity to calf thymus DNA assessed as binding constant at temperature of 308 K by Stern-Volmer quenching plot based fluorescence spectroscopic method. It counts as nucleic-acid assay. Particulars: Bos taurus.
The test system of data set [9] is Calf thymus DNA. The data set is described as follows: Binding affinity to calf thymus DNA assessed as quenching constant at temperature of 318 K by fluorescence spectroscopic method. The class given is nucleic-acid assay. Particulars: Bos taurus.
The subject of data set [10] is Calf thymus DNA. The data set is described as follows: Binding affinity to calf thymus DNA assessed as quenching constant at temperature of 308 K by fluorescence spectroscopic method. The class given is nucleic-acid assay. Particulars: Bos taurus.
The test system of data set [11] is MDA-MB-231. The data set is described as follows: Antiproliferative activity against human MDA-MB-231 cells assessed as cell growth inhibition by measuring lethal concentration incubated for 48 hrs by sulforhodamine B assay. The note with it: read-out: LC50 (the source's name). The class given is functional. Background: In SRB staining, fixed cells bind dye roughly in proportion to their protein.

The subject of data set [12] is RXF 393. The data set is described as follows: Antiproliferative activity against human RXF 393 cells assessed as cell growth inhibition by measuring lethal concentration incubated for 48 hrs by sulforhodamine B assay. It counts as functional. Particulars: read-out: LC50 (the source's name).
Data set [13] relates to SK-MEL-5. The data set is described as follows: Antiproliferative activity against human SK-MEL-5 cells assessed as cell growth inhibition by measuring lethal concentration incubated for 48 hrs by sulforhodamine B assay. The note with it: read-out: LC50 (the source's name). The class given is functional.
For data set [14], the system named is SF-539. The data set is described as follows: Antiproliferative activity against human SF-539 cells assessed as cell growth inhibition by measuring lethal concentration incubated for 48 hrs by sulforhodamine B assay. The class given is functional. The note with it: read-out: LC50 (the source's name).
Data set [15] relates to HCT-116. The data set is described as follows: Antiproliferative activity against human HCT-116 cells assessed as cell growth inhibition by measuring lethal concentration incubated for 48 hrs by sulforhodamine B assay. It counts as functional. The note with it: read-out: LC50 (the source's name).
For data set [16], the system named is COLO 205. The data set is described as follows: Antiproliferative activity against human COLO 205 cells assessed as cell growth inhibition by measuring lethal concentration incubated for 48 hrs by sulforhodamine B assay. The class given is functional. Particulars: read-out: LC50 (the source's name).
In data set [17] the test system is K562. The data set is described as follows: Antiproliferative activity against human K562 cells assessed as cell growth inhibition by measuring lethal concentration incubated for 48 hrs by sulforhodamine B assay. The class given is functional. The note with it: read-out: LC50 (the source's name).
The subject of data set [18] is T47D. The data set is described as follows: Growth inhibition against human T47D cells assessed as total growth inhibitory concentration incubated for 48 hrs by sulforhodamine B assay. It counts as functional.
The test system of data set [19] is SN12C. The data set is described as follows: Growth inhibition against human SN12C cells assessed as total growth inhibitory concentration incubated for 48 hrs by sulforhodamine B assay. The class given is functional.
Data set [20] concerns SK-OV-3. The data set is described as follows: Growth inhibition against human SK-OV-3 cells assessed as total growth inhibitory concentration incubated for 48 hrs by sulforhodamine B assay. The class given is functional.
In data set [21] the test system is OVCAR-5. The data set is described as follows: Growth inhibition against human OVCAR-5 cells assessed as total growth inhibitory concentration incubated for 48 hrs by sulforhodamine B assay. The class given is functional.
Data set [22] relates to SK-MEL-28. The data set is described as follows: Growth inhibition against human SK-MEL-28 cells assessed as total growth inhibitory concentration incubated for 48 hrs by sulforhodamine B assay. The class given is functional.
In data set [23] the test system is MDA-MB-435. The data set is described as follows: Growth inhibition against human MDA-MB-435 cells assessed as total growth inhibitory concentration incubated for 48 hrs by sulforhodamine B assay. It counts as functional.
Data set [24] deals with M14. The data set is described as follows: Growth inhibition against human M14 cells assessed as total growth inhibitory concentration incubated for 48 hrs by sulforhodamine B assay. The class given is functional.
Data set [25] concerns LOX IMVI. As to the kind of experiment: Growth inhibition against human LOX IMVI cells assessed as total growth inhibitory concentration incubated for 48 hrs by sulforhodamine B assay. The class given is functional.
Data set [26] has as its system U-251. The data set is described as follows: Growth inhibition against human U-251 cells assessed as total growth inhibitory concentration incubated for 48 hrs by sulforhodamine B assay. The class given is functional.
Data set [27] relates to HCT-15. The data set is described as follows: Growth inhibition against human HCT-15 cells assessed as total growth inhibitory concentration incubated for 48 hrs by sulforhodamine B assay. It counts as functional.
Data set [28] relates to NCI-H226. The data set is described as follows: Growth inhibition against human NCI-H226 cells assessed as total growth inhibitory concentration incubated for 48 hrs by sulforhodamine B assay. The class given is functional.
Data set [29] concerns HOP-62. As to the kind of experiment: Growth inhibition against human HOP-62 cells assessed as total growth inhibitory concentration incubated for 48 hrs by sulforhodamine B assay. It counts as functional.
In data set [30] the test system is K562. As to the kind of experiment: Growth inhibition against human K562 cells assessed as total growth inhibitory concentration incubated for 48 hrs by sulforhodamine B assay. The class given is functional.
Data set [31] has as its system K562. The data set is described as follows: Growth inhibition against human K562 cells incubated for 48 hrs by sulforhodamine B assay. It counts as functional.
Data set [32] concerns K562. The data set is described as follows: Antiproliferative activity against human K562 cells assessed as cell growth at 0.000001 M incubated for 48 hrs by SRB assay relative to control. The class given is functional. The note with it: read-out: Activity.
Data set [33] concerns K562. As to the kind of experiment: Antiproliferative activity against human K562 cells assessed as cell growth at 0.00001 M incubated for 48 hrs by SRB assay relative to control. The class given is functional. The note with it: read-out: Activity.
Data set [34] deals with K562. As to the kind of experiment: Antiproliferative activity against human K562 cells assessed as cell growth at 0.0001 M incubated for 48 hrs by SRB assay relative to control. It counts as functional. Particulars: read-out: Activity.
Data set [35] has as its system U-251. As to the kind of experiment: Antiproliferative activity against human U-251 cells assessed as cell growth at 0.0001 M incubated for 48 hrs by SRB assay relative to control. It counts as functional. The note with it: read-out: Activity.
Data set [36] deals with LOX IMVI. As to the kind of experiment: Antiproliferative activity against human LOX IMVI cells assessed as cell growth at 0.0001 M incubated for 48 hrs by SRB assay relative to control. It counts as functional. Particulars: read-out: Activity.
For data set [37], the system named is UO-31. As to the kind of experiment: Antiproliferative activity against human UO-31 cells assessed as cell growth at 0.0001 M incubated for 48 hrs by SRB assay relative to control. The note with it: read-out: Activity. The class given is functional.
For data set [38], the system named is K562. As to the kind of experiment: Antiproliferative activity against human K562 cells assessed as cell growth at 0.00000001 M incubated for 48 hrs by SRB assay relative to control. The class given is functional. Particulars: dose 10 nM, read-out: Activity.
Data set [39] deals with K562. The data set is described as follows: Antiproliferative activity against human K562 cells assessed as cell growth at 0.0000001 M incubated for 48 hrs by SRB assay relative to control. It counts as functional. Particulars: dose 100 nM, read-out: Activity.
Data set [40] addresses Albumin (Bos taurus, UniProt P02769). As to the kind of experiment: Binding affinity to bovine serum albumin assessed as fluorescence quenching by fluorescence spectroscopic method relative to control. Particulars: cattle.
Data set [41] deals with RXF 393. The data set is described as follows: Growth inhibition against human RXF 393 cells assessed as total growth inhibitory concentration incubated for 48 hrs by sulforhodamine B assay. The class given is functional.
The subject of data set [42] is 786-0. The data set is described as follows: Growth inhibition against human 786-0 cells assessed as total growth inhibitory concentration incubated for 48 hrs by sulforhodamine B assay. It counts as functional.
Data set [43] relates to NCI-H522. As to the kind of experiment: Antiproliferative activity against human NCI-H522 cells assessed as cell growth at 0.0001 M incubated for 48 hrs by SRB assay relative to control. The class given is functional. Particulars: read-out: Activity.

Albumin, sequence (P02769 whole entry): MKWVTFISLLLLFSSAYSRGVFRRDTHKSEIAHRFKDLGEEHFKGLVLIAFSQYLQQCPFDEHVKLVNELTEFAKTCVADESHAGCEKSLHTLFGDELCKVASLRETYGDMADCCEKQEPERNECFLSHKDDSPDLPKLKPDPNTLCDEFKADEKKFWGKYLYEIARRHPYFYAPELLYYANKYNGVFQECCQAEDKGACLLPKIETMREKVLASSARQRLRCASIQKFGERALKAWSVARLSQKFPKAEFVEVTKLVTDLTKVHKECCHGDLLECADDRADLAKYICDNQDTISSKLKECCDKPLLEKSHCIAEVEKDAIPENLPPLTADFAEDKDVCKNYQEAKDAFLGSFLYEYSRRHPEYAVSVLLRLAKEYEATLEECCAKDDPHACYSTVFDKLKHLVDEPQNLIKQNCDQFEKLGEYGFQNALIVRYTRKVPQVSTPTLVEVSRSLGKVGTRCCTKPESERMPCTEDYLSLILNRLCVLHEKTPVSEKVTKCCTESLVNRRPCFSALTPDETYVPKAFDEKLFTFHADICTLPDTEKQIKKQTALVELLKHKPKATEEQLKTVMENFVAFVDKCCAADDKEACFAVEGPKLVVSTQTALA

As a reminder, the TGI is the concentration giving total growth inhibition. One may read the GI50 as the concentration at which growth is held to half of that of the control. Turning to `COc1ccc(-c2cn3ccnc3c(-c3ccc4ncn(C5CCCCC5)c4c3)n2)cc1`, the deltaG in data set [1] was -3.79 kcal/mol; in data set [2] it was -5.85 kcal/mol; in [3], -7.91 kcal/mol. Besides, the deltaS in data set [4] was -206 cal/mol/K. In [5], the deltaH was -69.3 kcal/mol. The Activity in data set [6] was found to be 65%. Further, the Kb in data set [7] is 0.02 10^4/M; in [8], 4.57 10^4/M. For the same molecule, the results for the Kq in data set [9] and in data set [10] were 0.73 10^12/M/s and 1.68 10^12/M/s, respectively. For the same molecule, the CC50 in data set [11], in [12], in [13], in data set [14], in data set [15] and in data set [16] was greater than 100 µM in each case. In [17], the CC50 is greater than 100 µM. The TGI in data set [18] is 4.5 µM; in [19] it was greater than 100 µM; in [20], 7.64 µM; in [21], greater than 100 µM; in data set [22], greater than 100 µM; in [23], greater than 100 µM. In addition, the concentration for total growth inhibition (TGI) in data set [24], in data set [25], in data set [26], in [27], in data set [28] and in data set [29] was greater than 100 µM each time. Further, the TGI in data set [30] was greater than 100 µM. In data set [31], the GI50 came out at 0.422 µM. In addition, the growth at 1 µM in [32] is 25%. Besides, the growth at 10 µM in [33] stood at 8%. In addition, the growth at 100 µM came to 11% in [34], 6% in [35], 19% in data set [36] and 26% in data set [37]. Moreover, in [38], the growth at 0.01 µM worked out at 105%. In data set [39], the growth at 0.1 µM stood at 92%.

On to `c1ccc(Cn2cnc3ccc(-c4nc(-c5ccc6c(c5)ncn6C5CCCCC5)cn5ccnc45)cc32)cc1`, for which the Activity in data set [40] is 75%. Moreover, the TGI is 2.75 µM in data set [41] and greater than 100 µM in data set [42]. Also, in data set [43], the growth at 100 µM was -42%.
